Results taken from US12185723B2, “Herbicidally active 3-phenylisoxazoline-5-carboxamides of s-containing cyclopentenylcarboxylic esters” (Bayer Aktiengesellschaft, priority 2019, dated 2025).

Tests used:
Assay type in all cases: in vivo
DIGSA = test: Post-emergence herbicidal action against DIGSA; conditions: visual rating about 3 weeks after treatment
Procedure, shortened: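 Greenhouse-grown plants sprayed at one-leaf stage (2–3 weeks after sowing) with WP or EC formulations as aqueous suspension/emulsion plus 0.5% additive, 600 l/ha water. Activity rated visually about 3 weeks later versus untreated controls, 100% = plants dead, 0% = like controls.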

Abutilon theophrasti = test: Post-emergence herbicidal action against ABUTH; conditions: visual rating about 3 weeks after treatment
Procedure, shortened: (§1)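 Weeds sown in sandy loam, greenhouse-grown 2 to 3 weeks and treated at the one-leaf stage. Compounds formulated as WP or EC were sprayed onto green parts as aqueous suspension/emulsion with 0.5% additive at 600 l/ha water. Activity rated visually after about 3 weeks versus untreated controls (100% = plants dead, 0% = like control).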

Veronica persica = test: Post-emergence herbicidal action against VERPE
Procedure, shortened: as §1

Lolium rigidum = test: Post-emergence herbicidal action against LOLRI; conditions: visual rating about 3 weeks after treatment
Procedure, shortened: as §1

Alopecurus myosuroides = test: Post-emergence herbicidal action against ALOMY; conditions: visual rating about 3 weeks after treatment
Procedure, shortened: as §1

Viola tricolor = test: Post-emergence herbicidal action against VIOTR
Protocol: Post-Emergence Herbicidal Action Against Harmful Plants and Crop Plant Compatibility Seeds of monocotyledonous and dicotyledonous weeds and crop plants are placed in sandy loam in plastic or wood-fibre pots, covered with soil and cultivated in a greenhouse under controlled growth conditions. 2 to 3 weeks after sowing, the test plants are treated at the one-leaf stage. The compounds of the invention, formulated in the form of wettable powders (WP) or as emulsion concentrates (EC), are then sprayed onto the green parts of the plants as aqueous suspension or emulsion with addition of 0.5% additive at a water application rate of 600 l/ha (converted). After the test plants have been kept in the greenhouse under optimum growth conditions for about 3 weeks, the activity of the preparations is rated visually in comparison to untreated controls. For example, 100% activity=the plants have died, 0% activity=like control plants. [table]

Echinochloa crus-galli = test: Post-emergence herbicidal action against ECHCG; conditions: visual rating about 3 weeks after treatment
Procedure, shortened: as §1

Setaria viridis = test: Post-emergence herbicidal action against SETVI; conditions: visual rating about 3 weeks after treatment
Procedure, shortened: as §1

Pharbitis purpurea = test: Post-emergence herbicidal action against PHBPU
Procedure, shortened: as §1

Avena fatua = test: Post-emergence herbicidal action against AVEFA; conditions: visual rating about 3 weeks after treatment
Procedure, shortened: as §1

Stellaria media = test: Post-emergence herbicidal action against STEME
Procedure, shortened: as §1

Amaranthus retroflexus = test: Post-emergence herbicidal action against AMARE
Procedure, shortened: as §1

Hordeum murinum = test: Post-emergence herbicidal action against HORMU
Procedure, shortened: as §1

Matricaria inodora = test: Post-emergence herbicidal action against MATIN
Procedure, shortened: as §1

Polygonum convolvulus = test: Post-emergence herbicidal action against POLCO
Procedure, shortened: as §1

[1] = 80 g a.i./ha, visual rating about 3 weeks after treatment

| Compound | Herbicidal action against [%] DIGSA (DIGSA; 20 g a.i./ha) [%] | Herbicidal action against [%] DIGSA (DIGSA; 80 g a.i./ha) [%] | Herbicidal action against [%] VERPE (Veronica persica; 20 g a.i./ha) [%] | Herbicidal action against [%] VERPE (Veronica persica; 80 g a.i./ha) [%] | Herbicidal action against [%] LOLRI (Lolium rigidum; 20 g a.i./ha) [%] | Herbicidal action against [%] LOLRI (Lolium rigidum; 80 g a.i./ha) [%] | Herbicidal action against [%] ALOMY (Alopecurus myosuroides; 20 g a.i./ha) [%] | Herbicidal action against [%] ALOMY (Alopecurus myosuroides; 80 g a.i./ha) [%] | Herbicidal action against [%] VIOTR (Viola tricolor; 20 g a.i./ha) [%] | Herbicidal action against [%] ECHCG (Echinochloa crus-galli; 80 g a.i./ha) [%] | Herbicidal action against [%] SETVI (Setaria viridis; 80 g a.i./ha) [%] | Herbicidal action against [%] AVEFA (Avena fatua; 20 g a.i./ha) [%] | Herbicidal action against [%] AVEFA (Avena fatua; 80 g a.i./ha) [%] | Herbicidal action against [%] STEME (Stellaria media; 20 g a.i./ha) [%] | Herbicidal action against [%] STEME (Stellaria media; 80 g a.i./ha) [%] | Herbicidal action against [%] AMARE (Amaranthus retroflexus; [1]) [%] | Herbicidal action against [%] HORMU (Hordeum murinum; 20 g a.i./ha) [%] | Herbicidal action against [%] HORMU (Hordeum murinum; 80 g a.i./ha) [%] | Herbicidal action against [%] MATIN (Matricaria inodora; [1]) [%] | Herbicidal action against [%] SETVI (Setaria viridis; 20 g a.i./ha) [%] | also measured |
| --- | --- | --- | --- | --- | --- | --- | --- | --- | --- | --- | --- | --- | --- | --- | --- | --- | --- | --- | --- | --- | --- |
| CSCCOC(=O)C1C=CC(NC(=O)C2(C)CC(c3cc(Cl)cc(C#N)c3)=NO2)C1 (mixture of isomers) [Example I-49] | 80 | 90 | 80 | 90 | 90 | 90 | 90 | 100 | 90 | 80 | 80 | 90 | 90 | 90 | 90 | 100 | 80 | 80 | 80 |  | Herbicidal action against [%] ABUTH (Abutilon theophrasti; 80 g a.i./ha): 80%; Herbicidal action against [%] VIOTR (Viola tricolor; 80 g a.i./ha): 80%; Herbicidal action against [%] PHBPU (Pharbitis purpurea; 20 g a.i./ha): 80%; Herbicidal action against [%] AMARE (Amaranthus retroflexus; 20 g a.i./ha): 90% |
| CSCCOC(=O)C1C=CC(NC(=O)C2(C3CC3)CC(c3cc(F)cc(F)c3)=NO2)C1 (centres unmarked) [Example I-28] | 90 | 90 | 90 | 90 | 90 | 90 | 90 | 90 | 90 | 90 | 90 | 90 | 90 | 90 | 90 | 80 | 90 | 90 | 90 | 90 | Herbicidal action against [%] POLCO (Polygonum convolvulus; 20 g a.i./ha): 80%; Herbicidal action against [%] POLCO (Polygonum convolvulus; 80 g a.i./ha): 90%; Herbicidal action against [%] ABUTH (Abutilon theophrasti; 20 g a.i./ha): 90%; Herbicidal action against [%] ABUTH (Abutilon theophrasti; 80 g a.i./ha): 90%; Herbicidal action against [%] VIOTR (Viola tricolor; 80 g a.i./ha): 80%; Herbicidal action against [%] ECHCG (Echinochloa crus-galli; 20 g a.i./ha): 90%; Herbicidal action against [%] AMARE (Amaranthus retroflexus; 20 g a.i./ha): 80%; Herbicidal action against [%] MATIN (Matricaria inodora; 20 g a.i./ha): 80% |
| CSCCOC(=O)C1C=CC(NC(=O)C2(C)CC(c3cc(F)cc(Cl)c3)=NO2)C1 (centres unmarked) [Example I-32] | 80 | 80 | 80 | 90 | 90 | 90 | 90 | 100 | 80 | 80 | 80 | 90 | 90 | 80 | 90 | 80 | 80 | 80 | 80 | 80 | Herbicidal action against [%] ECHCG (Echinochloa crus-galli; 20 g a.i./ha): 80%; Herbicidal action against [%] PHBPU (Pharbitis purpurea; 80 g a.i./ha): 80%; Herbicidal action against [%] MATIN (Matricaria inodora; 20 g a.i./ha): 80% |
| CSCCOC(=O)[C@@H]1C=C[C@H](NC(=O)C2(C(F)(F)F)CC(c3cc(F)cc(Cl)c3)=NO2)C1 (stereo partly drawn) [Example I-33, 2-methylsulfanylethyl (1S,4R)-4-[[3-(3-chloro-5-fluorophenyl)-5-(trifluoromethyl)-4H-isoxazole-5-carbonyl]amino]cyclopent-2-ene-1-carboxylate] | 80 | 80 | 80 | 80 | 90 | 90 | 80 | 90 | 90 | 80 | 80 | 80 | 100 | 90 | 90 |  | 80 | 90 | 80 | 80 | Herbicidal action against [%] ABUTH (Abutilon theophrasti; 20 g a.i./ha): 80%; Herbicidal action against [%] ABUTH (Abutilon theophrasti; 80 g a.i./ha): 80%; Herbicidal action against [%] MATIN (Matricaria inodora; 20 g a.i./ha): 80% |
| CSCCOC(=O)C1=CC(NC(=O)C2(C)CC(c3cc(F)cc(F)c3)=NO2)CC1 (centres unmarked) [Example I-51] | 80 | 80 | 90 | 90 | 90 | 100 | 90 | 90 | 90 | 90 | 80 | 100 | 100 | 90 | 90 | 80 | 90 | 90 | 80 | 80 | Herbicidal action against [%] POLCO (Polygonum convolvulus; 80 g a.i./ha): 80%; Herbicidal action against [%] ECHCG (Echinochloa crus-galli; 20 g a.i./ha): 80%; Herbicidal action against [%] PHBPU (Pharbitis purpurea; 80 g a.i./ha): 80% |
